One data set concerns anesthetized dogs. Kind of data set: Toxicology study: cardiovascular and respiratory function in anesthetized dogs. The class given is in vivo, Beagle dogs. The protocol:
The effects of 3-(3,4-dimethoxy-phenyl)-3-(1-oxo-1,3-dihydro-isoindol-2-yl)-propionamide on cardiovascular and respiratory function are investigated in anesthetized dogs. Two groups of Beagle dogs (2/sex/group) are used. One group receives three doses of vehicle only and the other receives three ascending doses of the compound (200, 400, and 800 mg/kg). In all cases, doses of the compound or vehicle are successively administered via infusion through the jugular vein separated by intervals of at least 30 minutes.

The subject of data set [1] is TNF-α production following LPS-stimulation of human PBMC and human whole blood. Kind of data set: Modulation of cytokine production, in vitro studies. It is filed as cell-based. To be noted: compared with thalidomide. The source says:
In a specific embodiment, the pharmacological properties of 3-(3,4-dimethoxy-phenyl)-3-(1-oxo-1,3-dihydro-isoindol-2-yl)-propionamide are characterized in in vitro studies. Studies examine the effects of the compound on the production of various cytokines. Inhibition of TNF-α production following LPS-stimulation of human PBMC and human whole blood by the compound is investigated in vitro. […] The pharmacological effects of 3-(3,4-dimethoxy-phenyl)-3-(1-oxo-1,3-dihydro-isoindol-2-yl)-propionamide may derive from its action as an inhibitor of the generation of inflammatory cytokines.

For the compound `COc1ccc(C(CC(N)=O)N2Cc3ccccc3C2=O)cc1OC` (stereo not shown) [3-(3,4-dimethoxy-phenyl)-3-(1-oxo-1,3-dihydro-isoindol-2-yl)-propionamide], the “cardiovascular and respiratory changes” value in the data set on anesthetized dogs (all doses (200, 400, and 800 mg/kg), infusion through the jugular vein, compared to vehicle control group) was “minimal”. Also, the arterial blood pressure entry with anesthetized dogs (following the low dose, only statistically significant difference between vehicle and treatment groups) was “small increase”. For the same compound, in the data set with anesthetized dogs (higher doses), the “arterial blood pressure effect” value was “not seen”. Besides, the “pharmacological activity profile, potency relative to thalidomide” value in data set [1] was “five to fifty times more potent than thalidomide”.

The values above are taken from patent publication US7354948B2, “Methods for treatment of chronic uveitis using cyclopropyl-n-{2-[(1S)-1-(3-ethoxy-4-methoxyphenyl)-2-(methylsulfonyl)ethyl]-3-oxoisoindoline-4-yl}carboxamide” (Celgene Corporation, priority 2002, dated 2008).
